The supplement of paper PMC10307832

Key:
Experiment in all cases: relative viability (nuclei count vs DMSO), 5 days (fraction); higher = more cells survive
Ibrutinib + Olaparib = compound: C=CC(=O)N1CCC[C@@H](n2nc(-c3ccc(Oc4ccccc4)cc3)c3c(N)ncnc32)C1 [Ibrutinib] + O=C(c1cc(Cc2n[nH]c(=O)c3ccccc23)ccc1F)N1CCN(C(=O)C2CC2)CC1 [Olaparib] (partner 8 µM)
Procedure, shortened: (§1)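 Dosing by pin tool came one day after lung cancer cell lines were seeded in 1536-well plates, using either one drug or a fixed anchor-drug dose plus five library-drug doses (not always all listed) in √10 steps. After 5 days, nuclei were counted on 4× images. Relative viability is treated-well nuclei count divided by vehicle-well nuclei count, and values are medians of duplicate plates.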

Ibrutinib + Tozasertib = compound: C=CC(=O)N1CCC[C@@H](n2nc(-c3ccc(Oc4ccccc4)cc3)c3c(N)ncnc32)C1 [Ibrutinib] + Cc1cc(Nc2cc(N3CCN(C)CC3)nc(Sc3ccc(NC(=O)C4CC4)cc3)n2)n[nH]1 [Tozasertib] (partner 0.1 µM)
Procedure, shortened: as §1

Ibrutinib = compound: C=CC(=O)N1CCC[C@@H](n2nc(-c3ccc(Oc4ccccc4)cc3)c3c(N)ncnc32)C1 [Ibrutinib]
Procedure, shortened: (§2)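 On vehicle-anchored 1536-well plates, lung cancer cell lines held overnight at 37 °C were pinned with five library-drug doses (not always all listed) spaced by √10. With no medium change over 5 days, they were then fixed, permeabilised and Hoechst-stained in one step and imaged at 4×. MetaXpress counted nuclei, and viability is the median across plates of treated-well over vehicle-well nuclei. Acceptance needed control CV below 25% and at least one doubling.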

PAC-1 = compound: C=CCc1cccc(/C=N/NC(=O)CN2CCN(Cc3ccccc3)CC2)c1O [PAC-1]
Procedure, shortened: as §2

| Cell Line | relative viability (Ibrutinib + Olaparib; first compound 0.005 µM) | relative viability (Ibrutinib + Olaparib; first compound 0.01581 µM) | relative viability (Ibrutinib + Olaparib; first compound 0.05 µM) | relative viability (Ibrutinib + Olaparib; first compound 0.1581 µM) | relative viability (Ibrutinib + Olaparib; first compound 0.5 µM) | relative viability (Ibrutinib + Tozasertib; first compound 0.005 µM) | relative viability (Ibrutinib + Tozasertib; first compound 0.01581 µM) | relative viability (Ibrutinib + Tozasertib; first compound 0.05 µM) | relative viability (Ibrutinib + Tozasertib; first compound 0.1581 µM) | relative viability (Ibrutinib + Tozasertib; first compound 0.5 µM) | relative viability (Ibrutinib; 0.005 µM) | relative viability (Ibrutinib; 0.01581 µM) | relative viability (Ibrutinib; 0.05 µM) | relative viability (Ibrutinib; 0.1581 µM) | relative viability (Ibrutinib; 0.5 µM) | relative viability (PAC-1; 0.02 µM) | relative viability (PAC-1; 0.06325 µM) | relative viability (PAC-1; 0.2 µM) | relative viability (PAC-1; 2 µM) |
| --- | --- | --- | --- | --- | --- | --- | --- | --- | --- | --- | --- | --- | --- | --- | --- | --- | --- | --- | --- |
| ChaGo-K-1 | 0.445 | 0.421 | 0.424 | 0.436 | 0.426 | 0.228 | 0.218 | 0.212 | 0.232 | 0.22 | 0.953 | 0.95 | 0.958 | 0.913 | 1.02 | 1.05 | 1.01 | 1 | 0.929 |
| EBC-1 | 0.718 | 0.645 | 0.606 | 0.737 | 0.797 |  |  |  |  |  | 1.09 | 0.947 | 0.922 | 0.97 | 1.06 | 1.04 | 0.932 | 0.949 | 1 |
| EKVX | 0.691 | 0.835 | 0.674 | 0.935 | 0.449 | 0.427 | 0.332 | 0.4 | 0.426 | 0.269 | 0.955 | 0.95 | 0.901 | 0.849 | 0.584 | 1.02 | 0.977 | 0.934 | 0.98 |
| EMC-BAC-2 | 0.505 | 0.52 | 0.56 |  | 0.562 | 0.303 | 0.295 | 0.31 | 0.325 | 0.286 | 0.897 | 1.01 | 0.739 |  | 0.96 | 0.998 | 1.02 | 1.09 | 0.97 |
| EPLC-272H | 0.708 | 0.597 | 0.49 | 0.79 | 0.455 | 0.171 | 0.171 | 0.25 | 0.126 | 0.193 | 0.681 | 0.859 | 0.677 | 0.686 | 0.664 | 0.877 | 1.04 | 0.941 | 0.929 |
| H3255 | 0.533 | 0.53 | 0.516 | 0.623 | 0.407 | 0.729 | 0.615 | 0.581 | 0.672 | 0.312 | 0.912 | 0.858 | 0.745 | 0.945 | 0.547 | 1.07 | 1.01 | 0.942 | 0.909 |
| HARA | 0.96 | 0.712 | 0.778 | 0.763 | 0.384 | 0.0994 | 0.117 | 0.0863 | 0.0992 | 0.096 | 0.976 | 0.965 | 0.689 | 0.793 | 0.457 | 0.98 | 1.08 | 0.905 | 1.03 |
| HCC-15 | 0.835 | 0.724 | 0.75 | 0.846 | 0.773 | 0.464 | 0.413 | 0.563 | 0.396 | 0.357 | 1.12 | 1.01 | 1.04 | 0.857 | 1 | 1.09 | 1.08 | 0.969 | 1.08 |
| HCC-44 | 1.06 | 0.965 |  | 1 | 1.07 | 1.1 | 0.945 | 0.734 |  | 0.998 | 1.04 | 0.995 | 0.994 | 1.02 | 1.04 | 0.99 | 1.05 | 0.997 | 0.981 |
